Measured values: patent publication US20240189254A1, “Xylitol Topical Ocular Solution” (GSX Pharma LLC, priority 2022, published 2024)
Read-outs that look alike come from different tables or passages of the source.

How the values were obtained:
[1] = tested on: Acanthamoeba species cysts; test: PMN testing of Acanthamoeba species, xylitol with PHMB; format: cell-based; conditions: xylitol 6% to 20%
Source text: In PMN testing of a number of Acanthamoeba species, Xylitol in concentrations ranging from 6% to 20% has appeared to potentiate the acanthamoeba cysticidal effects of PHMB. In order for a disinfectant like PHMB to be cysticidal, it must gain access to the trophozoite internalized within the cyst. The most obvious route is via the ostioles or the pores in the double cell wall of the cyst that connect the outer exocyst and inner endocyst, thus allowing the internalized amoeba to communicate with its outside environment. It is believed that the mucopolysaccharides of the ostioles are altered by xylitol that enhance the binding by PHMB to allow […] penetration of the disinfectant.

[2] = limited human studies of topical xylitol; format: in vivo; conditions: topical 4% to 7% xylitol, 2-5 times per day
[3] = tested on: S. mutans; conditions: in spite of the presence of glucose or sucrose; cited from earlier work
[4] = tested on: Streptococcus salivarius; conditions: cited from earlier work
[5] = tested on: Streptococcus sanguis; conditions: cited from earlier work
[6] = tested on: S. pneumoniae; conditions: glucose in the growth medium, cited from earlier work
[7] = tested on: beta-haemolytic streptococci; conditions: 5% xylitol; cited from earlier work
[8] = tested on: H. influenzae; conditions: 5% xylitol; cited from earlier work
[9] = tested on: M. catarrhalis; conditions: 5% xylitol; cited from earlier work
[10] = 8.4-10 g daily in five doses, 2-3 months follow-up, cited from earlier work
[11] = tested on: S. mutans; conditions: cited from earlier work
[12] = tested on: S. pneumoniae; conditions: cited from earlier work
[13] = tested on: H. influenzae; conditions: cited from earlier work
[14] = tested on: Streptococcus pneumoniae strains; conditions: xylitol 0.5 to 5%; cited from earlier work
[15] = tested on: SARS-CoV-2; conditions: in vitro, within minutes of application, lasting for hours; cited from earlier work
[16] = in vivo; cited from earlier work
[17] = tested on: Acanthamoeba trophozoites; conditions: 48 h of exposure; cited from earlier work
[18] = tested on: Acanthamoeba cysts; conditions: 48 h of exposure; cited from earlier work

OC[C@@H](O)[C@H](O)[C@@H](O)CO [Xylitol]
effect on acanthamoeba cysticidal effects of PHMB [1]: potentiate | corneal SPK [2]: reduce | symptoms and inflammation (imaging of retro-palpebral and ocular surface mucosa, Meibomian gland obstruction) [2]: improve | growth of S. mutans [3]: markedly reduced | effect on growth of Streptococcus salivarius [4]: modest by comparison, but still significant | effect on growth of Streptococcus sanguis [5]: modest by comparison, but still significant | inhibition of pneumococcal growth ([6]; 1% xylitol): 39% | inhibition of pneumococcal growth ([6]; 5% xylitol solution): 72% | growth of beta-haemolytic streptococci [7]: more modestly impaired | growth of H. influenza [8]: minimally affected | growth of M. catarrhalis [9]: minimally affected | reduction of acute otitis media ([10]; chewing gum): approximately 40% | reduction of acute otitis media ([10]; oral xylitol syrup): approximately 30% | concentration capable of reducing adherence of S. mutans [11]: 6% | concentration sufficient to reduce adherence of S. pneumoniae to epithelial cells [12]: 5% | concentration sufficient to reduce adherence of H. influenzae to epithelial cells [13]: 5% | adherence on epithelial cells [14]: did not diminish significantly | reduction of virion concentrations [15]: multiple log MAR reduction | time until xylitol disappeared from the saliva [16]: ≤ 15 min

Polyhexamethylene Biguanide [PHMB]
minimum trophozoite amoebicidal concentration (MTAC) [17]: 1 g/mL | minimum cysticidal concentration (MCC) [18]: 3 g/mL
